Assay results as given in US12421260B2, “Neurokinin-1 antagonist” (SHANGHAI SHENGDI PHARMACEUTICAL CO., LTD, priority 2019, dated 2025).
≈ marks a conversion by molar mass, not a printed value.

Assays:
[1] = Chemical stability of the compounds (Test Example 1); assay type: physicochemical; settings: purity loss after placing for 7 days; 4° C. and room temperature
Method: 2.1 Test of Stability of the Compounds
About 1 mg of sample was weighed into a vial, then the vial was placed in a vacuum bag and the bag was vacuumized. Then the bag was put into a container containing color-changing silica gel and sealed. Two parallel samples were prepared. Enough samples were prepared according to the sampling time point and placed at 4° C. and room temperature respectively.

[2] = Water solubility (Test Example 1); assay type: physicochemical; settings: for solubility: aqueous buffer, thermodynamic from solid
Method: 1.1. Preparation of Reagents
The 100 mL strength reagents were prepared as follows:
pH=3.0: phosphate buffer solution: 100 ml of 20 mmol/L NaH2PO4, 0.1M H3PO4, adjusting pH to 3.0.
pH=4.0: phosphate buffer solution: 100 ml of 20 mmol/L NaH2PO4, 0.1M H3PO4, adjusting pH to 4.0. […]
An appropriate amount of test compound was accurately weighed. The solution was added at a small amount each time for several times and stirred until the compound was dissolved, and the content of the compound in the solution was determined.

[3] = Plasma stability test (Test Example 3); assay type: in vitro ADME; settings: human plasma; for plasma concentration of the compound of the examples / plasma concentration of rolapitant after metabolism of the compound of the examples: 37° C.; for stability and metabolism to rolapitant in plasma (in words): up to 180 min
Method: The compounds of Example 4, Example 6, Example 10 and Example 11.
Human fresh plasma was donated by volunteers with informed consent.
1) The test compounds in Table 3 were respectively prepared into 30 mM stock solutions with DMSO for later use.
2) The 30 mM stock solution was diluted with DMSO solution to solution I at a concentration of 1600 μM. Then the 1600 μM solution I was diluted with acetonitrile (ACN) to a working solution II at a concentration of 16 μM.
3) 7 time points of 0, 15, 30, 60, 90, 120 and 180 min were set in the experiment with two parallel samples for each time point. Two sample groups were set for each compound. 75 μL plasma and 5 μL of the above prepared working solution II with a concentration of 16 μM were added to each group. The reaction system was incubated at 37° C. until the preset time when the reaction was stopped by 300 μL of the ACN solution containing the internal standard. The reaction mixture was centrifuged at 3700 rpm for 10 min, and the supernatant was collected for analysis.
4) Preparation of the standard curve: the previously diluted 1600 μM solution I was diluted with acetonitrile to 1.5 μM/mL solution III as the standard curve for later use. The standard curve concentration was set to […]. After dilution of each concentration of the standard curve, 75 μL plasma was added to 5 μL of each concentration point at a final concentration of 0.02, 0.05, 0.1, 0.25, 0.75, 1.0 and 1.5 uM, respectively. 300 μL stop solution was then added to the samples quickly which was then centrifuged at 3700 rpm for 10 min, and the supernatant was collected for LC-MSMS analysis.

## Cc1oc(=O)oc1CN1C(=O)CC[C@]12CC[C@@](CO[C@H](C)c1cc(C(F)(F)F)cc(C(F)(F)F)c1)(c1ccccc1)NC2 [Example 3]
[1]
  Chemical stability: Good (purity reduced by <0.5% after placing for 7 days)
[2]; PH = 5
  solubility: < 100 µg/mL

## C[C@@H](OC[C@@]1(c2ccccc2)CC[C@]2(CCC(=O)N2)CN1C(=O)OCCN1CCN(C)CC1)c1cc(C(F)(F)F)cc(C(F)(F)F)c1 [Example 4]
[1]
  Chemical stability: Good (purity reduced by <0.5% after placing for 7 days)
[3]; 0 min
  plasma concentration of the compound of the examples: 1160 nM
[3]; 15 min
  plasma concentration of the compound of the examples: 980 nM
[3]; 30 min
  plasma concentration of the compound of the examples: 990 nM
[3]; 60 min
  plasma concentration of the compound of the examples: 1000 nM
[3]; 90 min
  plasma concentration of the compound of the examples: 970 nM
[3]; 120 min
  plasma concentration of the compound of the examples: 810 nM
[3]; 180 min
  plasma concentration of the compound of the examples: 780 nM
[3]
  stability and metabolism to rolapitant in plasma (in words): relatively stable in plasma
[2]; phosphate buffer, PH = 3
  solubility: 2080 µg/mL (≈ 3.1 mM)

## C[C@@H](OC[C@@]1(c2ccccc2)CC[C@]2(CCC(=O)N2COC(=O)N(C)C)CN1)c1cc(C(F)(F)F)cc(C(F)(F)F)c1 [Example 9]
[1]
  Chemical stability: Good (purity reduced by <0.5% after placing for 7 days)
[2]; phosphate buffer, PH = 3
  solubility: < 100 µg/mL

## CC(C)[C@H](N)C(=O)OCCCOC(=O)N1C[C@@]2(CCC(=O)N2)CC[C@@]1(CO[C@H](C)c1cc(C(F)(F)F)cc(C(F)(F)F)c1)c1ccccc1.O=C(O)C(F)(F)F [Example 10]
[3]; 0 min
  plasma concentration of rolapitant after metabolism of the compound of the examples: 0 nM
  plasma concentration of the compound of the examples: 1040 nM
[3]; 15 min
  plasma concentration of rolapitant after metabolism of the compound of the examples: 0 nM
  plasma concentration of the compound of the examples: 920 nM
[3]; 30 min
  plasma concentration of rolapitant after metabolism of the compound of the examples: 0 nM
  plasma concentration of the compound of the examples: 970 nM
[3]; 60 min
  plasma concentration of rolapitant after metabolism of the compound of the examples: 0 nM
  plasma concentration of the compound of the examples: 960 nM
[3]; 90 min
  plasma concentration of rolapitant after metabolism of the compound of the examples: 0 nM
  plasma concentration of the compound of the examples: 930 nM
[3]; 120 min
  plasma concentration of rolapitant after metabolism of the compound of the examples: 0 nM
  plasma concentration of the compound of the examples: 950 nM
[3]; 180 min
  plasma concentration of rolapitant after metabolism of the compound of the examples: 0 nM
  plasma concentration of the compound of the examples: 880 nM
[3]
  stability and metabolism to rolapitant in plasma (in words): relatively stable in plasma
[2]; PH = 3
  Water solubility: 1.86 mg/mL(PH = 3) mg/ml

## C[C@@H](OC[C@@]1(c2ccccc2)CC[C@]2(CCC(=O)N2)CN1C(=O)OCOC(=O)CN)c1cc(C(F)(F)F)cc(C(F)(F)F)c1 [Example 12]
[1]
  Chemical stability: Poor (purity reduced by >2.0% after placing for 7 days)

## C[C@H](N)C(=O)OCOC(=O)N1C[C@@]2(CCC(=O)N2)CC[C@@]1(CO[C@H](C)c1cc(C(F)(F)F)cc(C(F)(F)F)c1)c1ccccc1 [Example 13]
[1]
  Chemical stability: Moderate (purity reduced by 0.5%~2.0% after placing for 7 days)

## CC(OC(=O)[C@@H](N)C(C)C)OC(=O)N1C[C@@]2(CCC(=O)N2)CC[C@@]1(CO[C@H](C)c1cc(C(F)(F)F)cc(C(F)(F)F)c1)c1ccccc1 (stereo partly shown) [Example 14]
[1]
  Chemical stability: Good (purity reduced by <0.5% after placing for 7 days)
[2]; phosphate buffer, PH = 4
  solubility: 4500 µg/mL (≈ 6.54 mM)

## C[C@@H](OC[C@@]1(c2ccccc2)CC[C@]2(CCC(=O)N2)CN1C(=O)OCOC(=O)[C@@H](N)CCCCN)c1cc(C(F)(F)F)cc(C(F)(F)F)c1 [Example 17]
[1]
  Chemical stability: Moderate (purity reduced by 0.5%~2.0% after placing for 7 days)

## CC(C)[C@@H](N)C(=O)OCOC(=O)N1C[C@@]2(CCC(=O)N2)CC[C@@]1(CO[C@H](C)c1cc(C(F)(F)F)cc(C(F)(F)F)c1)c1ccccc1.O=C(O)C(F)(F)F [Example 18]
[1]
  Chemical stability: Good (purity reduced by <0.5% after placing for 7 days)
[2]; PH = 4
  Water solubility: 2.62 mg/mL (PH = 4) mg/ml
